Data set [1] deals with anti-emetic power relative to apomorphine in dogs. In words: anti-emetic power relative to apomorphine in dogs by the method of Chen and Ensor (subcutaneous administration). In kind it is in vivo. The note with it: Canis lupus familiaris, sc, Table 1, s.c. 30 minutes before apomorphine 100 ug/kg s.c. The method, then: (§1) The pharmacodynamic tests on the compounds of this invention, and particularly a study of their anti-emetic power have shown strong activity on the nervous system as apomorphine antagonists. […] In accordance with the above-mentioned procedures, the compounds of the invention were administered subcutaneously 30 minutes before the administration of apomorphine, which was administered subcutaneously in a dose of 100 ug/kg.

Data set [2] deals with biting sterotypes induced by apomorphine. In words: potentiation of biting sterotypes induced by apomorphine in mice, Pedeson's method. The note with it: Mus musculus, ip, Table 6, apomorphine 10 mg/kg, interperitoneal. In kind it is in vivo. As to the method:
The compounds were also tested for potentiation of biting sterotypes induced by apomorphine (10 (mg/kg) in mice, under interperitoneal administration in accordance with Pedeson's method in Brit J. Pharmacol. 1968, 34 (1), 219-220 with the following results: […]

In data set [3] the test system is anti-emetic power relative to apomorphine in dogs. In words: anti-emetic ED50 under oral administration (procedure of Example 29). In kind it is in vivo. The note with it: Canis lupus familiaris, Table 2. The method, then: as §1
Compounds SLC-036, 77205 and 77149 are disclosed in U.S. Pat. No. 4,172,143 for comparison purposes, as Examples 10, 33 and 37 therein. The results for those compounds are reported in Table IX of the '143 Patent and are believed to represent results from oral administration.
Pharmacological tests were carried out under oral administration to determine anti-emetic ED50 in accordance with the procedure of Example 29 with the following results: […]

The nature of data set [4]: acute toxicity in the mouse. As to conditions: in vivo. An excerpt:
The acute toxicity of the compounds of the invention has been studied in the mouse. The LD50 's are set out in the following Table 3. […] This characteristic is highly desirable because the possibility of toxic effects due to the administration of therapeutic doses is thereby minimized.

The subject of data set [5] is stereotypes induced by apomorphine. Briefly: potentiation of stereotypes induced by apomorphine in rats. As to conditions: Rattus norvegicus, ip, Table 7, apomorphine 0.25 mg/kg, intraperitoneal. In kind it is in vivo. The method, then:
The compound of Example 2 was tested against sulpiride for potentiation of stereotypes induced by apomorphine (0.25 mg/kg) in rats under intraperitoneal administration with the following results: […]

A further data set in a line: solubility in water. The note with it: crystals, base. In kind it is physicochemical.

In patent US4816471A, “Substituted heterocyclic benzamides, methods of preparing them and their application as anti-emetics” (Societe d'Etudes Scientifiques et Industrielles de …, priority 1978, dated 1989) one finds ED50, LD50 and solubility in water data, which are given here for two compounds.

Structures are written as SMILES.

By ED50 is commonly meant the dose that gives a 50% effect, or the effect in half of the subjects. As usually defined, the LD50 is the dose expected to kill half of the subjects tested. A higher LD50 goes with lower toxicity.

For the compound `CCS(=O)(=O)c1cc(C(=O)NCC2CCCN2CC2CC2)c(OC)cc1N` (centres unmarked) [Example 2, N-(1-cyclopropyl-methyl-2-pyrrolidinyl-methyl)-2-methoxy-4-amino-5-ethylsulphonyl-benzamide], the ED50 in data set [1] is 0.0004 mg/kg; in data set [2] it was 1.6 mg/kg; in data set [3] it was 0.0009 mg/kg; in data set [5], 2.4 mg/kg. In addition, the median lethal dose (LD50) lay within 52.5 to 54.6 mg/kg in data set [4] (I.V. (intravenous)); 1260 to 1320 mg/kg in data set [4] (P.O. (oral)); 204 to 220 mg/kg in data set [4] (ip, I.P. (intraperitoneal)); 380 to 396 mg/kg in data set [4] (sc, S.C. (subcutaneous)).
Regarding `COc1cc(S(N)(=O)=O)cc(C(=O)NCC2CCCN2CC2CC2)c1OC` (centres unmarked) [Example 4, N-(1-cyclopropylmethyl-2-pyrrolidinylmethyl)-2,3-dimethoxy-5-sulphamoyl benzamide], the solubility in water entry in “solubility in water” was “insoluble”. In data set [1], this compound had a median effective dose (ED50) of 0.0022 mg/kg. Besides, the LD50 is 60 to 64.5 mg/kg in data set [4] (I.V. (intravenous)); 2280 mg/kg in data set [4] (P.O. (oral)); 372 to 403 mg/kg in data set [4] (ip, I.P. (intraperitoneal)); 930 mg/kg in data set [4] (sc, S.C. (subcutaneous)).
